Series [1] deals with S. typhimurium strains (TA97a, TA98, TA100, TA102). The series can be described thus: Ames test. Particulars: 48 h; 5 mM and 25 mM, w/o and w/ S9 mix; four S. typhimurium strains. It counts as cell-based, Salmonella typhimurium. The protocol: Nevertheless, the evaluation of the mutagenicity of compound (3i) was carried out using the Ames test on four S. typhimurium strains at 5 mM and 25 mM (four doses per concentrations: 2, 3, 4, 5 µL/plate for assay without S9 mix and 4, 6, 8, 10 µL/plate for assay with S9 mix).
Compounds were assessed for mutagenicity by a modified version of the liquid incubation assay of the classical Ames test at five concentrations (25–125 nM). Salmonella tester strains (TA97a: Acridine ICR191, TA98: 2,4,7 trinitrofluorenone, TA100: Sodium Azide and TA102: Mitomycine C) as positive control w/o S9 mix and benzo[alpha]pyrene as positive control w/S9 mix) were grown overnight in a nutrient broth n_2 (Oxoid, Dardilly, France). After this period, products dissolved in DMSO (Sigma) were added to 0.1 mL of culture and incubated for 1 h at 37 °C with shaking. Each sample was assayed in duplicate. After incubation, 2 mL of molten top agar were mixed gently with the pre-incubated solution and poured onto Vogel–Bonner minimal agar plates. After 48 h at 37 °C, the number of spontaneous and drug-induced revertants per plate was determined for each dose with a laser bacterial colony counter (laser bacterial colony counter 500A, Interscience). A product was considered mutagenic when it induced a two-fold increase in the number of revertants, compared with the spontaneous frequency (negative control). […]
A general note: The Ames test detects mutagens through reverse mutation in bacteria.

Series [2] deals with P. falciparum ART-resistant strain F32-ART5. Nature of the series: Standard in vitro chemo-sensitivity assay, F32-ART5. It counts as cell-based. Particulars: Plasmodium falciparum, F32, 48 h, read-out: Mean ± SEM EC50 values F32-ART5. The protocol:
The Plasmodium falciparum ART-resistant strain F32-ART5 and its tween ART-sensitive strain F32-TEM [33, 41] were cultivated at 37 °C with 5% CO2 in human red blood cells (EFS, French Blood Bank) diluted to 2% hematocrit in RPMI-1640 medium (Biowest, Nuaillé, France) supplemented with 5% human serum (EFS, French Blood Bank), as previously reported.
The chemosensitivity assay was carried out in 96-well culture plates on synchronized ring-stage parasites at 1% parasitemia obtained after D-sorbitol treatment. The antiplasmodial activities were evaluated using the SYBR Green I method. Parasites were exposed for 48 h to a range of concentrations of the different tested compounds. Each drug concentration was tested in triplicates. Parasite pellets were then washed in 1× PBS prior to lysing red blood cells at −20 °C overnight. Then, the plates were thawed and 100 µL of each well were transferred into a black 96-well plate. Next, 100 µL per well of SYBR Green I (Thermo Fisher) diluted at a final concentration of 2× in lysis buffer (20 mM Tris base pH 7.5, 5 mM EDTA, 0.008% w/v saponin, 0.08% w/v Triton X-100) were added and left to incubate for 1 h at room temperature prior to reading the plates on BioTek FLx800 Microplate Fluorescence Reader (λexcitation = 485 nm, λemission = 528 nm). Relative EC50 values were determined using GraphPad Prism software.

The subject of series [3] is quiescent ART-resistant F32-ART5 parasites. The series can be described thus: Quiescent-stage survival assay (QSA). Type of series: cell-based, Plasmodium falciparum. The following applies: F32-ART5, DHA 700 nM 6 h then DHA + 3i 2.5 or 5 µM 48 h. The protocol: Chemosensitivity evaluation of ART-resistant parasites at the quiescent stage was performed on the strain F32-ART5 thanks to the quiescent-stage survival assay (QSA). D-sorbitol synchronized ring-stages parasites at 3% parasitemia (2% hematocrit) were first exposed to 700 nM of dihydroartemisinin (DHA) for 6 h to induce quiescence of artemisinin-resistant parasites. Then, quiescent parasites were exposed or not (as control condition) to the drug to be tested for 48 h. After drug exposure, parasite cultures were washed with RPMI-1640 medium and replaced in normal drug-free culture conditions. The time to parasite recrudescence was determined as the time required to reach the 3% initial parasitemia. […] In each experiment, results obtained with the condition “DHA 6 h/DHA 48 h” were compared to those obtained with the condition “DHA 6 h/(DHA + drug to be tested) 48 h” in order to determine the delay in recrudescence time. […]
3. Studying the effect of (3i) on the liver stage development of P. falciparum Cryopreserved primary human hepatocytes were seeded in 96 well plates with a pre-determined seeding dose that gave a single dense layer of attached hepatocytes. […]
The culture medium with or without drugs was refreshed every 48 hours and two independent plates were studied. […] Plates were subjected to quantification using an automated plate scanner. […]

Entries after “also recorded” stand apart in the source; their conditions may differ.

Broadly, the EC50 is the concentration giving half of the maximal effect. In the case of `O=[N+]([O-])c1ccc(Oc2nc3ccccc3nc2C(Cl)(Cl)Cl)cc1` [3i, 2-(4-Nitrophenoxy)-3-trichloromethylquinoxaline], in series [1], the “Ames test result (mutagenicity)” value was “not genotoxic; also recorded: not mutagenic in vitro; also recorded: negative”. Moreover, in series [2], the EC50 is 400 ± 105 nM. Further, in series [3], the “Activity on quiescent ART-resistant parasites (delay in recrudescence time, QSA)” value is on record as “did not present any activity”.

The values above are taken from PMC8400257, “2-Phenoxy-3-Trichloromethylquinoxalines Are Antiplasmodial Derivatives with Activity against the Apicoplast of Plasmodium falciparum” (Pharmaceuticals, 2021).
